Reference: BindingDB's records for doi:10.1021/jm991008q (1999)

Assays:
[1] = molecular target: Ornithine carbamoyltransferase (Streptococcus/Enterococcus faecalis); test: Binding affinity against ornithine transcarbamoylase (OTC) produced by Streptococcus faecalis The buffer taken for this study is 50 mM Tris.HCl, 0.5 mM EDTA at pH 8.0.
[2] = molecular target: Ornithine carbamoyltransferase (Streptococcus/Enterococcus faecalis); test: Binding affinity against ornithine transcarbamoylase (OTC) produced by Streptococcus faecalis The buffer taken for this study is 50 mM Tris.HCl, 0.5 mM EDTA at pH 7.0.
[3] = molecular target: Ornithine carbamoyltransferase (Streptococcus/Enterococcus faecalis); test: Binding affinity against ornithine transcarbamoylase (OTC) produced by Streptococcus faecalis The buffer taken for this study is 50 mM maleate, 0.5 mM EDTA at pH 6.0.

| SMILES | Ki [1] [µM] | Ki [2] [µM] | Ki [3] [µM] |
| --- | --- | --- | --- |
| N[C@@H](CCCNCP(=O)(O)CP(=O)(O)O)C(=O)O [2-Amino-5-[(hydroxy-phosphonomethyl-phosphinoylmethyl)-amino]-pentanoic acid] | 1900 | 750 | 660 |
| CC(C)(C)OC(=O)N[C@@H](CCCNCP(=O)(O)CP(=O)(O)O)C(=O)O [(2S)-2-[(tert-butoxycarbonyl)amino]-5-[({[(hydroxyphosphinato)methyl]phosphinato}methyl)ammonio]pentanoate] | 2000 | 1000 | > 20000 |
| N[C@@H](CCNCP(=O)(O)CP(=O)(O)O)C(=O)O [(2S)-2-ammonio-4-[({[(hydroxyphosphinato)methyl]phosphinato}methyl)ammonio]butanoate] | 3200 | 2300 | > 20000 |
